{"source": "patent US20250263441A1", "about": "(Metanovas Biotech Inc., priority 2024, published 2025)", "assay_type_in_all_cases": "cell-based", "key": {"Staphylococcus aureus": {"tested_on": "Staphylococcus aureus", "test": "Minimum inhibitory concentration on Staphylococcus aureus (liquid culture)", "details": "37° C., 24 to 48 hours", "method": "(§1) Primary screening of liquid culture: the peptides in Examples 1 to 2 were dissolved in pure water to a concentration of 100 μg/mL. Using a micropipette, 10 μL of the peptides were added to a new 96-well plate in order from left to right, starting from the second compartment. Positive and negative controls were established for use. The 96-well plates were arranged vertically, and the peptide concentrations in the control groups were the same as those of the antimicrobial peptides. The control groups included: pure water and bacteria, antimicrobial peptide FK13 and bacteria, antimicrobial peptide HPA3NT3 and bacteria, and ciprofloxacin and bacteria. An aseptic medium was used.\n(§2) If a 96-deep-well plate was used to culture bacteria, an additional 100 μL of sterile medium was added to all wells.\nStaphylococcus aureus was inoculated in LB medium with a normal oxygen concentration (21%) for 48 hours. Staphylococcus aureus clones were picked and incubated in LB medium at 37° C. with a normal oxygen concentration (21%) for an additional 48 hours. The bacterial concentration was measured and diluted to 107 CFU/mL with culture medium for use.\n(§3) The prepared fresh bacterial suspension was diluted to 105 CFU/mL and added to the 96-well plate with 90 μL of the bacterial suspension per well. The plate was incubated at 37° C. with a normal oxygen concentration for 24 to 48 hours (Propionibacterium acnes was cultured anaerobically at 37° C. for 24 to 48 hours in an anaerobic bag). The absorbance at 630 nm was measured using a microplate reader, and the degree of turbidity was observed by the naked eye.\n(§4) (iv) Repetition of Operations: The Operations in (iii) were Repeated Twice, and the Decision to Perform a Third Repetition was Based on the Reproducibility of the Experiment."}, "Propionibacterium acnes": {"tested_on": "Propionibacterium acnes", "test": "Minimum inhibitory concentration on Propionibacterium acnes (liquid culture)", "details": "anaerobic, 37° C., 24 to 48 hours", "method": "as §1, §2\nPropionibacterium acnes was inoculated on an anaerobic blood agar plate, placed in an anaerobic bag, and incubated anaerobically at 37° C. for 48 hours. Propionibacterium acnes clones were then picked and incubated anaerobically in liquid anaerobic broth medium at 37° C. for an additional 48 hours. The bacterial concentration was measured and diluted to 107 CFU/mL with culture medium.\nas §3, §4"}, "[1]": {"tested_on": "rabbit blood erythrocytes", "test": "Measurement of hemolytic concentration", "details": "for Hemolysis rate: 37° C., 1 hour, replicate wells", "method": "4 mL of 2% rabbit blood erythrocytes were washed twice with 4 mL PBS and centrifuged at 3000 rpm for 5 minutes. The supernatant was discarded, and the rabbit blood erythrocytes were resuspended in 4 mL PBS. 160 μg of the peptides from Examples 1 to 2, FK13, and HPA3NT3 were independently dissolved in 1 mL PBS buffer to prepare the peptide mother solutions with a concentration of 160 μg/mL. Subsequently, the peptide mother solutions were diluted with PBS buffer to concentrations of 80 μg/mL, 64 μg/mL, 32 μg/mL, 16 μg/mL, and 8 μg/mL. 100 μL of the 2% rabbit blood erythrocytes and 100 μL of different concentrations of peptides (80 μg/mL, 64 μg/mL, 32 μg/mL, 16 μg/mL, 8 μg/mL) were added to each well of a 96-well plate. In the negative control, 100 μL of PBS buffer was added, while in the positive control, 100 μL of 0.1% (w/v) Triton X-100 was added. Three replicate wells were set up for each group and incubated at 37° C. for 1 hour. The 96-well plate was then removed, centrifuged at 3000 rpm for 5 minutes, and 100 μL of supernatant was aspirated and transferred to a new 96-well plate. The absorbance was measured at 540 nm using an enzyme meter. Hemolysis rate (%)=((Absorbancesample−Absorbancenegative)/(Absorbancepositive−Absorbancenegative))*100%."}, "[2]": {"tested_on": "HaCat (human immortalized epidermal cells) cells", "test": "Cytotoxic assay (CCK-8) in HaCat cells", "details": "60 hours", "method": "Preparation of Cell Suspension: HaCat (human immortalized epidermal cells) cells were counted and inoculated into 96-well plates. 100 μL of cell suspension was added to each well, corresponding to a density of 5×10^4 cells per well, with three replicates for each sample. The cells were cultured in a 37° C. incubator for 4 hours until they were attached to the plate. Peptides from the examples, as well as FK13 and HPA3NT3, were then added at concentrations of 80 μg/mL, 32 μg/mL, and 8 μg/mL. The cells were incubated at 37° C. for 60 hours. Afterward, 10 μL of CCK-8 solution was added, and the cells were cultured for an additional 2 hours. The absorbance of the peptides at 450 nm was measured using a dual-wavelength detector, with a detection wavelength of 450-490 nm and a reference wavelength of 600-650 nm."}, "[3]": {"tested_on": "Escherichia coli (ATCC: 25922)", "test": "Inhibitory effect of AMP-33 on Escherichia coli (viability, OD 630 nm)", "details": "for Viability of Escherichia coli: 24 hours, repeated experiments", "method": "(1) Staphylococcus aureus and Escherichia coli were inoculated into LB liquid medium and cultured overnight under aerobic conditions at 37° C. and […] on a shaker.\n(2) 200 μL of LB liquid culture medium and a predetermined concentration of peptide AMP-33 were added to a 96-deep-well plate. Then, 10 μL of the Staphylococcus aureus/Escherichia coli solution was inoculated (mixed well before inoculation).\n(3) After incubating at […] for 24 hours on a shaking table at 37° C., the turbidity of the bacterial solution was observed. A volume of 100 μL of the solution was taken, and the OD at 630 nm was measured using an enzyme-linked immunosorbent assay (ELISA) reader (after multiple blows and mixing).\n[formula] • OD Measurement: OD value of the test peptide. • ODneg: OD value with no bacterial inoculation, containing only […] medium. • ODpos: OD value with bacterial inoculation and without inhibitors."}}, "note": "Several values for one entry are separate records, joined by “and”; a condition that tells them apart may be missing. Equal values may be shown once.", "data": [{"substance": "Example 2: LSKWLKKLGKLLAG (designated as AMP33)", "values": [{"measurement": "Minimum inhibitory concentration on Staphylococcus aureus", "setting": "Staphylococcus aureus", "value": 12.5, "unit": "µg/mL"}, {"measurement": "Minimum inhibitory concentration on Propionibacterium acnes", "setting": "Propionibacterium acnes", "value": 4, "unit": "µg/mL"}, {"measurement": "Hemolysis rate", "setting": "[1]; 8 μg/mL", "value": "3.6% and 7.9% and 23%"}, {"measurement": "Hemolysis rate", "setting": "[1]; 16 μg/mL", "value": "2.6% and 1.7% and −0.4%"}, {"measurement": "Hemolysis rate", "setting": "[1]; 32 μg/mL", "value": "0.6% and 4.6% and 3.3%"}, {"measurement": "Hemolysis rate", "setting": "[1]; 64 μg/mL", "value": "0.7% and −0.8% and −2.0%"}, {"measurement": "Hemolysis rate", "setting": "[1]; 80 μg/mL", "value": "10.1% (2×) and 11.1%"}, {"measurement": "Minimum hemolytic concentration", "setting": "[1]; rabbit erythrocytes", "value": 64.0, "unit": "µg/mL"}, {"measurement": "Maximum cytotoxicity-free concentration", "setting": "[2]", "value": 80, "unit": "µg/mL"}, {"measurement": "Viability of Escherichia coli", "setting": "[3]; 1 μg/mL", "value": "110.11 and 91.93 and 82.94"}, {"measurement": "Viability of Escherichia coli", "setting": "[3]; 2 μg/mL", "value": "89.71 and 90.4 and 98.53"}, {"measurement": "Viability of Escherichia coli", "setting": "[3]; 4 μg/mL", "value": "86.48 and 70.83 and 70.35"}, {"measurement": "Viability of Escherichia coli", "setting": "[3]; 8 μg/mL", "value": "78.87 and 50.46 and 73.2"}, {"measurement": "Viability of Escherichia coli", "setting": "[3]; 25 μg/mL", "value": "74.99 and 38.97 and 51.39"}, {"measurement": "inhibition of Escherichia coli", "setting": "[3]; 25 ppm", "value": "over 99%"}]}]}
